These results are taken from patent US9845296B2 (dated 2017).

Broadly, the melting point is the temperature of the solid-liquid transition. `CN(C)c1cc2[nH]c(C3CCCCC3)nc2cc1N` registered a melting point of 135 to 137 °C.

Regarding `CN(C)c1cc2[nH]c(C3CCCCC3)nc2cc1NC(=O)c1ccc(OC(F)F)cc1`, the melting point was in the range of 183 to 185 °C.

On to `CN(C)c1cc2[nH]c(C3CCCCC3)nc2cc1NC(=O)c1ccc(F)cc1`, for which the melting point was in the range of 196 to 197 °C.

For the compound `COc1cccc(C(=O)Nc2cc3nc(C4CCCCC4)[nH]c3cc2N(C)C)c1OC`, the melting point was 173 to 174 °C.
